Measurements published in patent US11014911B2, “CDK2 inhibitors” (Pfizer Inc., priority 2019, dated 2021).

Assays:
[1] = molecular target: CDK2/Cyclin E1 full length (Homo sapiens (Human), UniProt P24941); assay: CDK2/Cyclin E1 full length mobility shift assay; type: biochemical
GSK3β (H350L) = GSK3β (H350L) (Homo sapiens (Human), UniProt P49841); details: read-out: GSK3β Ki
Chain of GSK3β (H350L) (P49841 whole entry, stated change not applied): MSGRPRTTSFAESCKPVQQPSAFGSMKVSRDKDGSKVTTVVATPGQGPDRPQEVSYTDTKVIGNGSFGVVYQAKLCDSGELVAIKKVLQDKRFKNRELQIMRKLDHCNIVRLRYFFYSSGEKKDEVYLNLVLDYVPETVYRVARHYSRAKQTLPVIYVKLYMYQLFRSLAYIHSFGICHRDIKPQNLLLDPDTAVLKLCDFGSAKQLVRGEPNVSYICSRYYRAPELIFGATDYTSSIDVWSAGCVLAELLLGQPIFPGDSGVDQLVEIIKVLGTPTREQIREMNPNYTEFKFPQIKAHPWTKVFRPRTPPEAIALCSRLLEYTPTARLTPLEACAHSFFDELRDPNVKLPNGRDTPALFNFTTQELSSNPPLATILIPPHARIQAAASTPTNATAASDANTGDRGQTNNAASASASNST
Procedure: The assay was initiated with the addition of ATP, following 15 minutes pre-incubation of enzyme and inhibitor at room temperature in the reaction mixture. The reaction was stopped after 30 minutes at room temperature by the addition of 50 μL of 80 mM EDTA.

| SMILES | Ki [1] | Ki (GSK3β (H350L)) |
| --- | --- | --- |
| CCNC(=O)O[C@@H]1CC[C@H](c2cc(NC(=O)Cc3ccc(OC)nc3)n[nH]2)C1 [Example 231, (1R,3S)-3-(3-{[(6-methoxypyridin-3-yl)acetyl]amino}-1H-pyrazol-5-yl)cyclopentyl ethylcarbamate] | 1.18 nM | 15.6 nM |
| CC[C@H](C)NC(=O)O[C@@H]1CC[C@H](c2cc(NC(=O)c3cc(OC)nn3C)n[nH]2)C1 [Example 41] | 0.2 nM | 343 nM |
| CCNC(=O)O[C@@H]1CC[C@H](c2cc(NC(=O)Cc3ccc4c(cnn4C)c3)n[nH]2)C1 [Example 3, (1R,3S)-3-(3-{[(1-methyl-1H-indazol-5-yl)acetyl]amino}-1H-pyrazol-5-yl)cyclopentyl ethylcarbamate] | 0.34 nM | 10 nM |
| CCNC(=O)O[C@@H]1CC[C@H](c2cc(NC(=O)Cc3ccnc(OC)c3)n[nH]2)C1 [Example 232, (1R,3S)-3-(3-{[(2-methoxypyridin-4-yl)acetyl]amino}-1H-pyrazol-5-yl)cyclopentyl ethylcarbamate] | 1.54 nM | 34.1 nM |
| CC[C@H](C)NC(=O)O[C@H]1CC[C@@H](c2cc(NC(=O)Cc3ccno3)n[nH]2)C1 [Example 30] | 0.16 nM | 20.6 nM |
| CCCCNC(=O)O[C@@H]1CC[C@H](c2cc(NC(=O)Cc3ccno3)n[nH]2)C1 [Example 259, (1R,3S)-3-{3-[(1,2-oxazol-5-ylacetyl)amino]-1H-pyrazol-5-yl}cyclopentyl butylcarbamate] | 0.68 nM | 17.4 nM |
| CC(C)(C)NC(=O)O[C@@H]1CC[C@H](c2cc(NC(=O)Cc3ccno3)n[nH]2)C1 [Example 108] | 0.15 nM | 38.8 nM |
| COCc1cc(C(=O)Nc2cc([C@H]3CC[C@@H](OC(=O)N[C@H](C)C4CC4)C3)[nH]n2)n(C)n1 [Example 105] | 0.47 nM | > 47.6 nM |
| COc1cc(CC(=O)Nc2cc([C@H]3CC[C@@H](OC(=O)NCCC(F)(F)F)C3)[nH]n2)ccn1 [Example 102] | 0.39 nM | 9.9 nM |
| Cc1ccc(CC(=O)Nc2cc([C@@H]3CC[C@H](OC(=O)N[C@H]4CC[C@H](O)CC4)C3)[nH]n2)cn1 [Example 548, (1S,3R)-3-(3-{[(6-methylpyridin-3-yl)acetyl]amino}-1H-pyrazol-5-yl)cyclopentyl (trans-4-hydroxycyclohexyl)carbamate] | 0.39 nM | 2.1 nM |
| CC[C@H](C)NC(=O)O[C@@H]1CC[C@H](c2cc(NC(=O)Cc3ccnn3C)n[nH]2)C1 [Example 326, (1R,3S)-3-(3-{[(1-methyl-1H-pyrazol-5-yl)acetyl]amino}-1H-pyrazol-5-yl)cyclopentyl (2S)-butan-2-ylcarbamate] | 1.17 nM | 72.4 nM |
| Cn1cc(CC(=O)Nc2cc([C@H]3CC[C@@H](OC(=O)NC4(C)CCOCC4)C3)[nH]n2)cn1 [Example 506, (1R,3S)-3-(3-{[(1-methyl-1H-pyrazol-4-yl)acetyl]amino}-1H-pyrazol-5-yl)cyclopentyl (4-methyltetrahydro-2H-pyran-4-yl)carbamate] | 0.76 nM | 77.6 nM |
| CCCNC(=O)O[C@H]1CC[C@@H](c2cc(NC(=O)Cc3ccccc3OCCN)n[nH]2)C1 [Example 197, (1S,3R)-3-[3-({[2-(2-aminoethoxy)phenyl]acetyl}amino)-1H-pyrazol-5-yl]cyclopentyl propylcarbamate] | 0.49 nM | > 191 nM |
| CC(C)NC(=O)O[C@H]1CC[C@@H](c2cc(NC(=O)c3cnnn3C)n[nH]2)C1 [Example 261, (1S,3R)-3-(3-{[(1-methyl-1H-1,2,3-triazol-5-yl)carbonyl]amino}-1H-pyrazol-5-yl)cyclopentyl propan-2-ylcarbamate] | 1 nM | 121 nM |
| COc1ccc(CC(=O)Nc2cc([C@@H]3CC[C@H](OC(=O)N[C@H]4CC[C@@H](O)CC4)C3)[nH]n2)nc1 [Example 554, (1S,3R)-3-(3-{[(5-methoxypyridin-2-yl)acetyl]amino}-1H-pyrazol-5-yl)cyclopentyl (cis-4-hydroxycyclohexyl)carbamate] | 1.76 nM | 5.11 nM |
| CCC(C)(C)NC(=O)O[C@@H]1CC[C@H](c2cc(NC(=O)Cc3cnn(C)c3)n[nH]2)C1 [Example 61] | 0.11 nM | 42.3 nM |
| CC[C@H](C)NC(=O)O[C@@H]1CC[C@H](c2cc(NC(=O)Cc3ccnc(OC)c3)n[nH]2)C1 [Example 37] | 0.19 nM | 23.4 nM |

Results, then the compound that gave them:

| Ki [1] | Ki (GSK3β (H350L)) | SMILES |
| --- | --- | --- |
| 0.36 nM | 12.7 nM | Cc1cc(CC(=O)Nc2cc([C@H]3CC[C@@H](OC(=O)N4CCC[C@@H]4C)C3)[nH]n2)on1 [Example 632, (1R,3S)-3-(3-{[(3-methyl-1,2-oxazol-5-yl)acetyl]amino}-1H-pyrazol-5-yl)cyclopentyl (2S)-2-methylpyrrolidine-1-carboxylate] |
| 0.57 nM | 3.7 nM | CCN(C)C(=O)O[C@@H]1CC[C@H](c2cc(NC(=O)Cc3ccc(OC)nc3)n[nH]2)C1 [Example 244, (1R,3S)-3-(3-{[(6-methoxypyridin-3-yl)acetyl]amino}-1H-pyrazol-5-yl)cyclopentyl ethyl(methyl)carbamate] |
| 0.71 nM | 13 nM | CCCNC(=O)O[C@@H]1CC[C@H](c2cc(NC(=O)Cc3cnc(C)s3)n[nH]2)C1 [Example 185, (1R,3S)-3-(3-{[(2-methyl-1,3-thiazol-5-yl)acetyl]amino}-1H-pyrazol-5-yl)cyclopentyl propylcarbamate] |
| 0.26 nM | 46 nM | CC(C)(C)NC(=O)O[C@@H]1CC[C@H](c2cc(NC(=O)Cc3cnc(C(F)(F)F)cn3)n[nH]2)C1 [Example 317, (1R,3S)-3-[3-({[5-(trifluoromethyl)pyrazin-2-yl]acetyl}amino)-1H-pyrazol-5-yl]cyclopentyl tert-butylcarbamate] |
| 0.83 nM | 14.1 nM | C[C@]1(O)CC[C@H](NC(=O)O[C@@H]2CC[C@H](c3cc(NC(=O)Cc4cc(F)cc(F)c4)n[nH]3)C2)CC1 [Example 573, (1R,3S)-3-(3-{[(3,5-difluorophenyl)acetyl]amino}-1H-pyrazol-5-yl)cyclopentyl (trans-4-hydroxy-4-methylcyclohexyl)carbamate] |
| 0.13 nM | 8.86 nM | Cc1ncc(CC(=O)Nc2cc([C@H]3CC[C@@H](OC(=O)NC4(C)CCCC4)C3)[nH]n2)s1 [Example 116] |
| 0.43 nM | 19 nM | CCCNC(=O)O[C@H]1CC[C@@H](c2cc(NC(=O)Cc3cc(C)no3)n[nH]2)C1 [Example 177, (1S,3R)-3-(3-{[(3-methyl-1,2-oxazol-5-yl)acetyl]amino}-1H-pyrazol-5-yl)cyclopentyl propylcarbamate] |
| 0.79 nM | 37.6 nM | COc1ccc(CC(=O)Nc2cc([C@H]3CC[C@@H](OC(=O)N[C@H]4CC[C@@](C)(O)CC4)C3)[nH]n2)cc1 [Example 566, (1R,3S)-3-(3-{[(4-methoxyphenyl)acetyl]amino}-1H-pyrazol-5-yl)cyclopentyl (cis-4-hydroxy-4-methylcyclohexyl)carbamate] |
| 0.42 nM | 5.75 nM | COc1cc(CC(=O)Nc2cc([C@H]3CC[C@@H](OC(=O)N4C[C@@H](OC)[C@@H]4C)C3)[nH]n2)ccn1 [Example 619, (1R,3S)-3-(3-{[(2-methoxypyridin-4-yl)acetyl]amino}-1H-pyrazol-5-yl)cyclopentyl (2S,3R)-3-methoxy-2-methylazetidine-1-carboxylate] |
| 0.32 nM | 16.6 nM | CCCNC(=O)O[C@H]1CC[C@@H](c2cc(NC(=O)c3ccnn3C)n[nH]2)C1 [Example 163, (1S,3R)-3-(3-{[(1-methyl-1H-pyrazol-5-yl)carbonyl]amino}-1H-pyrazol-5-yl)cyclopentyl propylcarbamate] |
| 0.37 nM | 24.2 nM | C[C@]1(O)CC[C@@H](NC(=O)O[C@@H]2CC[C@H](c3cc(NC(=O)Cc4cc(F)cc(F)c4)n[nH]3)C2)CC1 [Example 572, (1R,3S)-3-(3-{[(3,5-difluorophenyl)acetyl]amino}-1H-pyrazol-5-yl)cyclopentyl (cis-4-hydroxy-4-methylcyclohexyl)carbamate] |
| 1.34 nM | 43.2 nM | Cc1cnc(CC(=O)Nc2cc([C@H]3CC[C@@H](OC(=O)N[C@@H](C)[C@@H](C)F)C3)[nH]n2)o1 [Example 383, (1R,3S)-3-(3-{[(5-methyl-1,3-oxazol-2-yl)acetyl]amino}-1H-pyrazol-5-yl)cyclopentyl [(2S,3R)-3-fluorobutan-2-yl]carbamate] |
| 0.49 nM | 53.1 nM | COc1ccc(CC(=O)Nc2cc([C@H]3CC[C@@H](OC(=O)NC(C)C)C3)[nH]n2)cc1 [Example 275, (1R,3S)-3-(3-{[(4-methoxyphenyl)acetyl]amino}-1H-pyrazol-5-yl)cyclopentyl propan-2-ylcarbamate] |
| 0.82 nM | 39.7 nM | CCCNC(=O)O[C@H]1CC[C@@H](c2cc(NC(=O)Cc3cnc(C)o3)n[nH]2)C1 [Example 175, (1S,3R)-3-(3-{[(2-methyl-1,3-oxazol-5-yl)acetyl]amino}-1H-pyrazol-5-yl)cyclopentyl propylcarbamate] |
| 0.28 nM | 14.9 nM | Cc1cc(CC(=O)Nc2cc([C@H]3CC[C@@H](OC(=O)N4[C@@H](C)CC[C@@H]4C)C3)[nH]n2)on1 [Example 638, (1R,3S)-3-(3-{[(3-methyl-1,2-oxazol-5-yl)acetyl]amino}-1H-pyrazol-5-yl)cyclopentyl (2S,5S)-2,5-dimethylpyrrolidine-1-carboxylate] |
| 0.68 nM | 72 nM | Cc1nnc(CC(=O)Nc2cc([C@H]3CC[C@@H](OC(=O)NC(C)(C)C)C3)[nH]n2)o1 [Example 298, (1R,3S)-3-(3-{[(5-methyl-1,3,4-oxadiazol-2-yl)acetyl]amino}-1H-pyrazol-5-yl)cyclopentyl tert-butylcarbamate] |
| 0.07 nM | 3.47 nM | COc1cc(CC(=O)Nc2cc([C@H]3CC[C@@H](OC(=O)N4CCC4(C)C)C3)[nH]n2)ccn1 [Example 146] |
| 3.91 nM | > 191 nM | CCCNC(=O)O[C@@H]1CC[C@H](c2cc(NC(=O)c3ccc(C)nc3C)n[nH]2)C1 [Example 181, (1R,3S)-3-(3-{[(2,6-dimethylpyridin-3-yl)carbonyl]amino}-1H-pyrazol-5-yl)cyclopentyl propylcarbamate] |
